Experimental data published in patent publication US4167568A, “8-Azapurin-6-one derivatives” (May & Baker Limited, priority 1976, dated 1979).

Legend:
[1] = system: passive cutaneous anaphylactic reaction; assay: Passive cutaneous anaphylactic reaction test in rats (intravenous); type: in vivo; details: relative to reference compound RCA (= 1)
Excerpt: A.1. Passive cutaneous anaphylactic reaction test in rats (intravenous)

[2] = Acute intravenous toxicity in mice; details: mouse, in vivo, triethanolamine salt, aqueous solution, observed 7 days
Description: T.2. Acute intravenous toxicity in mice
Mice were each treated intravenously with an aqueous solution of the triethanolamine salt of one of the compounds of formula IV, and they were observed during the next 7 days. The LD50 figures obtained (doses lethal to 50% of mice tested) are shown below in Table III, expressed in mg/kg animal body weight.
The aqueous solutions used were prepared as follows:- A mixture of the test compound and water was treated gradually with triethanolamine until complete solution occurred. The solution was then diluted with water to a concentration of either 1% w/v or 2% w/v. Various volumes of these solutions were then administered to the mice.

[3] = system: passive cutaneous anaphylactic reaction; assay: Passive cutaneous anaphylactic reaction test in rats (oral); type: in vivo; details: for oral activity relative to reference compounds RCB and RCC: times as active as RCB and RCC
Excerpt: A.2. Passive cutaneous anaphylactic reaction test in rats (oral)

beagle dogs = assay: Emetic activity in dogs; type: in vivo; details: four beagle dogs, oral gelatine capsules, observed at least 2.5 hours
Excerpt: The emetic activity in dogs of test compound A was compared with that of the reference compound RCA.
Four beagle dogs, each of approximately 12 kg body weight, were starved overnight and then were given orally gelatine capsules containing either test compound A or RCA.
The same four animals were used to test both compounds.

[4] = Acute oral toxicity in mice; details: mouse, in vivo, observed 3 days
Excerpt: T.1. Acute oral toxicity in mice
Mice were each treated orally with one of the compounds of formula IV, and they were observed during the next 3 days. The LD50 figures obtained (doses lethal to 50% of mice tested) are shown in Table II, expressed in mg/kg animal body weight.

| SMILES | Relative Activity [1] | other results |
| --- | --- | --- |
| CCCOc1ccc(NC=C(C#N)C(=O)OCC)cc1-c1nc2[nH]nnc2c(=O)[nH]1 [C, 2-[5-(2-cyano-2-ethoxycarbonylvinylamino)-2-propoxyphenyl]-8-azapurin-6-one] | 10 | LD50 at 168 h ([2]; test solution 2% w/v): 290 mg/kg; oral activity relative to reference compounds RCB and RCC [3]: over 2.5 times |
| CCCOc1ccc(NC=C(C(=O)OCC)C(=O)OCC)cc1-c1nc2[nH]nnc2c(=O)[nH]1 [Compound A, 2-[5-{2,2-bis(ethoxycarbonyl)vinylamino}-2-propoxyphenyl]-8-azapurin-6-one] | 5 | oral activity relative to reference compounds RCB and RCC [3]: over 5 times; vomiting (emetic activity) (beagle dogs; 200 mg/kg): caused vomiting in none of the four dogs |
| CCCOc1ccc(NC=C(C(C)=O)C(C)=O)cc1-c1nc2[nH]nnc2c(=O)[nH]1 [Compound B, 2-[5-(2,2-diacetylvinylamino)-2-propoxyphenyl]-8-azapurin-6-one] | 50 | LD50 at 168 h ([2]; test solution 1% w/v): 350 mg/kg |
| CCOC(=O)C(=CNc1ccc(OC)c(-c2nc3[nH]nnc3c(=O)[nH]2)c1)C(=O)OCC [Compound E, 2-[5-{2,2-bis(ethoxycarbonyl)vinylamino}-2-methoxyphenyl]-8-azapurin-6-one] | 5 | LD50 at 72 h [4]: > 1000 mg/kg; LD50 at 168 h ([2]; test solution 1% w/v): 320 mg/kg |
| CCCOc1ccc(NC=C(C(=O)OC)C(=O)OC)cc1-c1nc2[nH]nnc2c(=O)[nH]1 [Compound G, 2-[5-{2,2-bis(methoxycarbonyl)vinylamino}-2-propoxyphenyl]-8-azapurin-6-one] | 50 | LD50 at 168 h ([2]; test solution 2% w/v): 280 mg/kg |
| CCCOc1ccc(N/C(=C\C(=O)OC)C(=O)OC)cc1-c1nc2[nH]nnc2c(=O)[nH]1 [Compound H, (Z)-2-[5-{1,2-bis(methoxycarbonyl)vinylamino}-2-propoxyphenyl]-8-azapurin-6-one] | 15 | LD50 at 168 h ([2]; test solution 2% w/v): 410 mg/kg |
| COc1ccc(NC(C)=CC(C)=O)cc1-c1nc2[nH]nnc2c(=O)[nH]1 [Compound I, 2-[5-(1-acetylprop-1-en-2-ylamino)-2-methoxyphenyl]-8-azapurin-6-one] | 5 | LD50 at 168 h ([2]; test solution 1% w/v): 470 mg/kg |
| CCCOc1ccc(C#N)cc1-c1nc2[nH]nnc2c(=O)[nH]1 [Compound L, 2-(5-cyano-2-propoxyphenyl)-8-azapurin-6-one] | 1 | – |
| CCCOc1ccc(C(N)=O)cc1-c1nc2[nH]nnc2c(=O)[nH]1 [Compound M, 2-(5-carbamoyl-2-propoxyphenyl)-8-azapurin-6-one] | 10 | – |
| CCCOc1ccc(C(=O)NC(C)(C)C)cc1-c1nc2[nH]nnc2c(=O)[nH]1 [Compound N, 2-(5-N-t-butylcarbamoyl-2-propoxyphenyl)-8-azapurin-6-one] | 50 | LD50 at 72 h [4]: > 1000 mg/kg |
| CCCOc1ccc(NC(=O)NC(C)C)cc1-c1nc2[nH]nnc2c(=O)[nH]1 [Compound O, 2-[2-propoxy-5-(3-isopropylureido)phenyl]-8-azapurin-6-one] | 30 | LD50 at 72 h [4]: > 1000 mg/kg |
| CCCNC(=O)Nc1ccc(OCCC)c(-c2nc3[nH]nnc3c(=O)[nH]2)c1 [Compound P, 2-[2-propoxy-5-(3-propylureido)phenyl]-8-azapurin-6-one] | 2 | – |
| CCCOc1ccc(NC(=S)NC)cc1-c1nc2[nH]nnc2c(=O)[nH]1 [Compound Q, 2-[5-(3-methyl-2-thioureido)-2-propoxyphenyl]-8-azapurin-6-one] | 10 | – |
| CCCNC(=S)Nc1ccc(OCCC)c(-c2nc3[nH]nnc3c(=O)[nH]2)c1 [Compound R, 2-[2-propoxy-5-(3-propyl-2-thioureido)phenyl]-8-azapurin-6-one] | 0.2 | LD50 at 72 h [4]: > 1000 mg/kg |
| CCCOc1ccc(NC(N)=O)cc1-c1nc2[nH]nnc2c(=O)[nH]1 [Compound S, 2-(2-propoxy-5-ureidophenyl)-8-azapurin-6-one] | 5 | – |
| CCCOc1ccc(-c2nnn[nH]2)cc1-c1nc2[nH]nnc2c(=O)[nH]1 [Compound T, 2-[2-propoxy-5-(tetrazol-5-yl)phenyl]-8-azapurin-6-one] | 2 | – |
| CCCOc1ccc(NC2=C(C(=O)OCC)CCC2)cc1-c1nc2[nH]nnc2c(=O)[nH]1 [Compound U, 2-[5-(2-ethoxycarbonylcyclopent-1-enylamino)-2-propoxyphenyl]-8-azapurin-6-one] | 5 | LD50 at 168 h ([2]; test solution 2% w/v): 220 mg/kg |
| CCCOc1ccc(C(=O)N(CC)CC)cc1-c1nc2[nH]nnc2c(=O)[nH]1 [Compound V, 2-(5-N,N-diethylcarbamoyl-2-propoxyphenyl)-8-azapurin-6-one] | 3 | – |
| CCCOc1ccc(NC=C(C(C)=O)C(=O)OCC)cc1-c1nc2[nH]nnc2c(=O)[nH]1 [D, 2-[5-(2-acetyl-2-ethoxycarbonylvinylamino)-2-propoxyphenyl]-8-azapurin-6-one] | 10 | LD50 at 168 h ([2]; test solution 2% w/v): 270 mg/kg |
| COc1ccc(NC=C(C(C)=O)C(C)=O)cc1-c1nc2[nH]nnc2c(=O)[nH]1 [F, 2-[5-(2,2-diacetylvinylamino)-2-methoxyphenyl]-8-azapurin-6-one] | 5 | – |
| CCCOc1ccc(N=NC(C(C)=O)C(C)=O)cc1-c1nc2[nH]nnc2c(=O)[nH]1 [J, 2-[5-(2,4-dioxopent-3-ylazo)-2-propoxyphenyl]-8-azapurin-6-one] | 10 | LD50 at 72 h [4]: > 1000 mg/kg |
| CCCOc1ccc(N=NC(C(=O)OCC)C(=O)OCC)cc1-c1nc2[nH]nnc2c(=O)[nH]1 [K, 2-[5-{bis(ethoxycarbonyl)methylazo}-2-propoxyphenyl]-8-azapurin-6-one] | 2.5 | LD50 at 168 h ([2]; test solution 2% w/v): 255 mg/kg |
| CCCOc1ccccc1-c1nc2nn[nH]c2c(=O)[nH]1 [RCA, 2-(2-propoxyphenyl)-8-azapurin-6-one, reference compound] | 1 | vomiting (emetic activity) (beagle dogs; 100 mg/kg): caused vomiting in all four dogs |
| CCCOc1ccc(S(=O)(=O)N(C)C(C)C)cc1-c1nc2[nH]nnc2c(=O)[nH]1 [RCB, 2-[2-propoxy-5-(N-methyl-N-isopropylsulphamoyl)-phenyl]-8-azapurin-6-one, reference compound] | – | oral activity of RCB and RCC compared with each other [3]: approximately equiactive orally |
| CCCOc1ccc(S(=O)(=O)CCC)cc1-c1nc2[nH]nnc2c(=O)[nH]1 [RCC, 2-(2-propoxy-5-propylsulphonylphenyl)-8-azapurin-6-one, reference compound] | – | oral activity of RCB and RCC compared with each other [3]: approximately equiactive orally |
| CCCOc1ccc(C(=O)N(C)C(C)C)cc1-c1nc2[nH]nnc2c(=O)[nH]1 [W, 2-(5-N-methyl-N-isopropylcarbamoyl-2-propoxyphenyl)-8-azapurin-6-one] | 5 | – |
